# Assay results reported in ChEMBL document CHEMBL4665704, “Carneic Acids from an Endophytic Phomopsis sp. as Dengue Virus Polymerase Inhibitors” (J Nat Prod, 2020).
# Tests used:
# [1] = tested on: Zika virus; experiment: Inhibition of NS5 in Zika virus at 1 ug/ml after 10 mins in presence of nucleotide mix by fluorescence assay; settings: dose 1.0 µg/ml
# [2] = tested on: Dengue virus; experiment: Inhibition of DENV RNA-dependent RNA polymerase at 1 ug/ml; settings: dose 1.0 µg/ml
# [3] = tested on: Dengue virus; experiment: Inhibition of DENV RNA-dependent RNA polymerase at 10 ug/ml; settings: dose 10.0 µg/ml
# [4] = tested on: Zika virus; experiment: Inhibition of NS5 in Zika virus at 10 ug/ml after 10 mins in presence of nucleotide mix by fluorescence assay; settings: dose 10.0 µg/ml
# [5] = tested on: Zika virus; experiment: Inhibition of NS5 in Zika virus at 50 ug/ml after 10 mins in presence of nucleotide mix by fluorescence assay; settings: dose 50.0 µg/ml
# [6] = tested on: Dengue virus; experiment: Inhibition of DENV RNA-dependent RNA polymerase at 50 ug/ml; settings: dose 50.0 µg/ml
# [7] = tested on: MRC5; experiment: Antiproliferative activity against human MRC5 cells at 10 ug/ml after 72 hrs by resazurin dye-based spectrophotometric analysis relative to control; assay type: functional; settings: dose 10 µg/ml
# [8] = Inhibition of DENV RNA-dependent RNA polymerase; set-up: species or system Dengue virus
# [9] = tested on: Dengue virus; experiment: Inhibition of DENV RNA-dependent RNA polymerase at 10 uM
smiles,measurement,setting,value
CC(=O)OC/C=C(\C)[C@@H]1C(C)=C[C@@H]2CC(=O)C[C@H](C)[C@H]2[C@@H]1/C=C/C=C/C(=O)O,inhibition,[1],13.8%
same,inhibition,[2],0%
same,inhibition,[3],36.4%
same,inhibition,[4],19.3%
same,inhibition,[5],25.4%
same,inhibition,[6],64.6%
same,Activity,[7],98.8%
C/C=C(\C)[C@@H]1C(C)=C[C@@H]2C[C@@H](OC(C)=O)C[C@H](C)[C@H]2[C@@H]1/C=C/C=C/C(=O)O,inhibition,[1],1.2%
same,inhibition,[2],2.8%
same,inhibition,[3],62.3%
same,inhibition,[4],21.5%
same,inhibition,[5],47.7%
same,IC50,[8],15.5 µM
same,inhibition,[6],88.9%
same,Activity,[7],91.9%
CC1=C[C@@H]2C[C@H](O)C[C@H](C)[C@H]2[C@H](/C=C/C=C/C(=O)O)[C@@H]1/C(C)=C/CO,inhibition,[1],8.5%
same,inhibition,[2],6.5%
same,inhibition,[3],28.7%
same,inhibition,[4],5.5%
same,inhibition,[5],18.4%
same,inhibition,[6],43.9%
same,Activity,[7],85.8%
C/C=C(\C)[C@@H]1C(C)=C[C@@H]2CC(=O)C[C@H](C)[C@H]2[C@@H]1/C=C/C=C/C(=O)O,inhibition,[1],6.3%
same,inhibition,[2],7.9%
same,inhibition,[3],65.6%
same,inhibition,[4],24.4%
same,inhibition,[5],49.9%
same,IC50,[8],11.8 µM
same,inhibition,[6],85.1%
same,Activity,[7],96.9%
CC1=C[C@@H]2CCC[C@H](C)[C@H]2[C@H](/C=C/C=C/C(=O)O)[C@@H]1/C(C)=C/CO,inhibition,[1],0%
same,inhibition,[2],13.2%
same,inhibition,[3],51.2%
same,inhibition,[4],21%
same,inhibition,[5],38.3%
same,IC50,[8],37.5 µM
same,inhibition,[6],75.5%
same,Activity,[7],100%
C/C=C(\C)[C@@H]1C(C)=C[C@@H]2C[C@H](O)C[C@H](C)[C@H]2[C@@H]1/C=C/C=C/C(=O)O,inhibition,[1],4.9%
same,inhibition,[2],6.4%
same,inhibition,[3],46%
same,inhibition,[4],27.6%
same,inhibition,[5],50.9%
same,IC50,[8],19 µM
same,inhibition,[6],85%
same,Activity,[7],99%
Nc1ncnc2c1ncn2[C@@H]1O[C@H](COP(=O)(O)OP(=O)(O)OP(=O)(O)O)C[C@H]1O,inhibition,[9],96.1%
CC(=O)OC/C=C(\C)[C@@H]1C(C)=C[C@@H]2CC[C@@H](O)[C@H](C)[C@H]2[C@@H]1/C=C/C=C/C(=O)O,inhibition,[1],5.4%
same,inhibition,[2],26%
same,inhibition,[3],40.2%
same,inhibition,[4],18.1%
same,inhibition,[5],39.6%
same,inhibition,[6],48.7%
same,Activity,[7],93.5%
C/C=C(\C)[C@@H]1C(C)=C[C@@H]2C[C@@H](O)C[C@H](C)[C@H]2[C@@H]1/C=C/C=C/C(=O)O,inhibition,[1],9.6%
same,inhibition,[2],15.3%
same,inhibition,[3],59.4%
same,inhibition,[4],23.3%
same,inhibition,[5],40.9%
same,IC50,[8],19 µM
same,inhibition,[6],78.1%
same,Activity,[7],97%
CC1=C[C@@H]2CC(=O)C[C@H](C)[C@H]2[C@H](/C=C/C=C/C(=O)O)[C@@H]1/C(C)=C/CO,inhibition,[1],0%
same,inhibition,[2],0%
same,inhibition,[3],23.8%
same,inhibition,[4],0%
same,inhibition,[5],25.5%
same,inhibition,[6],36.7%
same,Activity,[7],100%
CC(=O)OC/C=C(\C)[C@@H]1C(C)=C[C@@H]2CC[C@H](O)[C@H](C)[C@H]2[C@@H]1/C=C/C=C/C(=O)O,inhibition,[1],3%
same,inhibition,[2],10.5%
same,inhibition,[3],61%
same,inhibition,[4],20.7%
same,inhibition,[5],56.3%
same,IC50,[8],13.6 µM
same,inhibition,[6],85.4%
same,Activity,[7],95.6%
CC(=O)OC/C=C(\C)[C@@H]1C(C)=C[C@@H]2C[C@H](O)C[C@H](C)[C@H]2[C@@H]1/C=C/C=C/C(=O)O,inhibition,[1],0%
same,inhibition,[2],4.7%
same,inhibition,[3],28.9%
same,inhibition,[4],3.3%
same,inhibition,[5],32%
same,inhibition,[6],52.3%
same,Activity,[7],98.5%
CC1=C[C@@H]2C[C@@H](O)C[C@H](C)[C@H]2[C@H](/C=C/C=C/C(=O)O)[C@@H]1/C(C)=C/CO,inhibition,[1],15.2%
same,inhibition,[2],2%
same,inhibition,[3],49%
same,inhibition,[4],6%
same,inhibition,[5],15%
same,inhibition,[6],42.8%
same,Activity,[7],79.3%
CC1=C[C@@H]2CC[C@@H](O)[C@H](C)[C@H]2[C@H](/C=C/C=C/C(=O)O)[C@@H]1/C(C)=C/CO,inhibition,[1],4.8%
same,inhibition,[2],0%
same,inhibition,[3],29.7%
same,inhibition,[4],8%
same,inhibition,[5],33.7%
same,inhibition,[6],42%
same,Activity,[7],98.1%
